This experiment has as its target T1, ZAP-70 (Homo sapiens, UniProt P43403).
T1 sequence (P43403 1-619): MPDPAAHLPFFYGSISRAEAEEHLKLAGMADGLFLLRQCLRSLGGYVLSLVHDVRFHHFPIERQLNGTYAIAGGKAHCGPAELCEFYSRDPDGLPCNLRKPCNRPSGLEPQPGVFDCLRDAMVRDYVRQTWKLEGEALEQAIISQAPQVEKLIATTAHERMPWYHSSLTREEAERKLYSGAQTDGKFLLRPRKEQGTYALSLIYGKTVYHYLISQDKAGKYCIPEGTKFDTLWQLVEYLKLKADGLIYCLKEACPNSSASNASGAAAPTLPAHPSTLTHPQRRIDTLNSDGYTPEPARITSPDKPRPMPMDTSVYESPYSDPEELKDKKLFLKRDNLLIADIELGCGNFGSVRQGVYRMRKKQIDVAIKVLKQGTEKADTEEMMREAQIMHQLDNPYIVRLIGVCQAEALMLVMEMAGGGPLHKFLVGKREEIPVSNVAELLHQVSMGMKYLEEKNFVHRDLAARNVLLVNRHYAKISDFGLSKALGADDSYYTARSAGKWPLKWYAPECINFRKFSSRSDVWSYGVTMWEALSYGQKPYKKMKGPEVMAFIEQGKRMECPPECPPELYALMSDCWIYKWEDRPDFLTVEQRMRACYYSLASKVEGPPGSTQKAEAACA
Description: DELFIA assay (ZAP-70 kinase, phosphorylation of biotinylated poly(glu,tyr)). Type of experiment: biochemical. To be noted: ZAP-70 DELFIA, class symbols; read-out: Activity (IC50 in vitro). The method, then: Before initiation of kinase reactions, compounds were pre-incubated with ZAP-70. Pre-incubation reactions contained 62.5 mM Mops pH 7.0, 12.5 mM MgCl2, 12.5% glycerol, 3.1 nM ZAP-70, 62.5 nM biotinylated poly(glu,Tyr), 0.1 mg/ml BSA, 6.25% DMSO and […] compound in a total volume of […]. After a 10 minute room temperature incubation, 10 ml of 5 mM ATP was added to start the reaction. Reactions were incubated at room temperature for 30 minutes then terminated by addition of 5 ml 500 mM EDTA. The amount of phosphate transferred to biotinylated poly(glu,tyr) was measured using the Dissociation Enhanced Lanthanide Fluorescence Immuno-assay (DELFIA) from Perkin Elmer according to manufacturers protocol. Briefly, biotinylated […] was captured on streptavidin coated plates, washed twice, then incubated with Europium labeled-anti-phosphotyrosine antibody. Free antibody was removed with six washes, Europium was dissociated from the antibody, and Europium fluorescence was measured at using an excitation wavelength of 340 nm and an emission wavelength of 615 nm.
For orientation: IC50 means the midpoint of a concentration-inhibition curve. With `O=C(c1cc(NCc2ccc(C(F)(F)F)cc2)nc2ccc(-c3ccc(Cl)c(Cl)c3)cc12)N1CCC[C@H]1CN1CCCC1` [Compound 105], the IC50 is less than 1 µM.
The figure for `N#Cc1cccc(-c2ccc3nc(NCc4ccc(C(F)(F)F)cc4)cc(C(=O)N4CCC[C@H]4CN4CCCC4)c3c2)c1` [Compound 106] is less than 1 µM; for `N#Cc1ccc(-c2ccc3nc(NCc4ccc(C(F)(F)F)cc4)cc(C(=O)N4CCC[C@H]4CN4CCCC4)c3c2)cc1` [Compound 107] it is less than 1 µM; for `O=C(c1cc(NCc2ccc(C(F)(F)F)cc2)nc2ccc(-c3cc(F)cc(F)c3)cc12)N1CCC[C@H]1CN1CCCC1` [Compound 108] it is 1 to 10 µM.
As for `O=C(c1cc(NCc2ccc(C(F)(F)F)cc2)nc2ccc(-c3ccc4c(c3)OCO4)cc12)N1CCCC1CCN1CCCC1` (stereo not drawn) [Compound 109], the IC50 lay within 1 to 10 µM.
The figure for `O=C(c1cc(NCc2ccc(C(F)(F)F)cc2)nc2ccc(-c3ccc4c(c3)OCO4)cc12)N1CCC(CN2CCCC2)C1` (stereo not drawn) [Compound 110] is more than 10 µM.
To `O=C(NCc1ccc(C(F)(F)F)cc1)c1cc(NCc2ccc(C(F)(F)F)cc2)nc2ccc(-c3ccc4c(c3)OCO4)cc12` [Compound 111] belongs more than 10 µM; to `O=C(c1cc(Cl)ncc1Cl)N1CCC[C@H]1CN1CCCC1` [Compound 112], more than 10 µM; to `O=C(c1cc(Cl)nc(Cl)c1)N1CCC[C@H]1CN1CCCC1` [Compound 113], more than 10 µM.
With `O=C(c1cc(NCc2ccc(C(F)(F)F)cc2)ncc1Cl)N1CCC[C@H]1CN1CCCC1` [Compound 114], the IC50 is more than 10 µM.
To `O=C(c1cc(Cl)nc(/C=C/c2ccccc2)c1)N1CCC[C@H]1CN1CCCC1` [Compound 115] belongs more than 10 µM; to `O=C(c1cc(/C=C/c2ccccc2)nc(/C=C/c2ccccc2)c1)N1CCC[C@H]1CN1CCCC1` [Compound 116], 1 to 10 µM.
As to `CC(Nc1cc(C(=O)N2CCC[C@H]2CN2CCCC2)c2cc(-c3ccc4c(c3)OCO4)ccc2n1)c1ccc(F)cc1` (stereo partly drawn) [Compound 117], the IC50 was less than 1 µM.
The figure for `O=C(c1cc(NCc2ccc(C(F)(F)F)cc2)nc2cc(-c3ccc4c(c3)OCO4)ccc12)N1CCC[C@H]1CN1CCCC1` [Compound 118] is 1 to 10 µM.
To `N#Cc1cccc(-c2ccc3c(C(=O)N4CCC[C@H]4CN4CCCC4)cc(NCc4ccc(C(F)(F)F)cc4)nc3c2)c1` [Compound 119] belongs more than 10 µM.
For `N#Cc1ccc(-c2ccc3c(C(=O)N4CCC[C@H]4CN4CCCC4)cc(NCc4ccc(C(F)(F)F)cc4)nc3c2)cc1` [Compound 120], the IC50 lay within 1 to 10 µM.
With `O=C(c1cc(NCc2ccc(C(F)(F)F)cc2)nc2cc(-c3cc(F)cc(F)c3)ccc12)N1CCC[C@H]1CN1CCCC1` [Compound 121], the IC50 is 1 to 10 µM.
To `O=C(c1cc(NCc2ccc(C(F)(F)F)cc2)nc2cc(-c3ccc(Cl)c(Cl)c3)ccc12)N1CCC[C@H]1CN1CCCC1` [Compound 122] belongs 1 to 10 µM.
Regarding `CS(=O)(=O)c1ccc(-c2ccc3c(C(=O)N4CCC[C@H]4CN4CCCC4)cc(NCc4ccc(C(F)(F)F)cc4)nc3c2)cc1` [Compound 123], the IC50 lay within 1 to 10 µM.
Take `Cc1c(NCc2ccc(C(F)(F)F)cc2)nc2ccc(-c3ccc4c(c3)OCO4)cc2c1C(=O)N1CCC[C@H]1CN1CCCC1` [Compound 124]: the IC50 fell in the range of 1 to 10 µM.
The figure for `O=C(c1cc(NCc2ccc(C(F)(F)F)cc2)nc2ccc(-c3ccc4c(c3)OC(F)(F)C(F)(F)O4)cc12)N1CCC[C@H]1CN1CCCC1` [Compound 125] is less than 1 µM.
As for `O=C(c1cc(NCc2ccc(C(F)(F)F)cc2)nc2ccc(-c3ccc4c(c3)OCCO4)cc12)N1CCC[C@H]1CN1CCCC1` [Compound 126], the IC50 is less than 1 µM.
The figure for `O=C(c1cc(NCc2ccc(C(F)(F)F)cc2)nc2ccc(-c3ccc4cc[nH]c4c3)cc12)N1CCC[C@H]1CN1CCCC1` [Compound 127] is less than 1 µM; for `O=C(c1cc2cc(-c3ccc4c(c3)OCO4)ccc2nc1NCc1ccc(C(F)(F)F)cc1)N1CCCC1CN1CCCC1` (stereo not drawn) [Compound 128] it is more than 10 µM.

These data come from patent publication US20080119515A1, “Heterocyclic Kinase Inhibitors: Methods of Use and Synthesis” (priority 2003, published 2008).
